The target of series [1] is T1, erythrocyte AChE (Homo sapiens, UniProt P22303). On the set-up: from tissue; host or cells: human whole peripheral blood (erythrocytes), K2EDTA anticoagulant; method as in PMID 38008925. The settings on record: human blood; read-out: IC50, erythrocyte AChE inhibition; cited from earlier work.
For series [2], the target named is T1, erythrocyte AChE. The settings on record: cited from earlier work; for reported or expected adverse health outcome: human, single oral 1600 mg/kg BW, ref Table S2, 1600 mg/kg.
For series [3] the following is noted: QSAR-based prediction; ref Punt et al. 2022; Moerenhout et al. 2024; cited from earlier work.
Series [4] addresses T1, erythrocyte AChE. The experiment in a line: biochemical. Format: biochemical. On the set-up: from tissue; host or cells: human whole peripheral blood (erythrocytes), K2EDTA anticoagulant. How it is done:
Ethanol (UPLC/MS grade) was ordered from Biosolve (Valkenswaard, The Netherlands). Ultrapure water used for experiments was prepared with a Sartorius Arium Pro ultrapure water system (Göttingen, Germany). Human whole peripheral blood with K2EDTA as an anticoagulant was used for the in vitro AChE inhibition assay. K2EDTA acts as an inhibitor to the paraoxonase 1 (PON1) enzyme,[23] preventing the underestimation of the inhibition potential of organophosphate oxons due to the nontarget clearance by PON1 present in the blood samples.
Inhibition of erythrocyte AChE by the organophosphate oxon or the corresponding oxon metabolite of an organothiophosphate was measured in vitro using the method previously described.[12] The ethanolic stock solution of the test oxon was first diluted 100 times with sodium phosphate buffer (100 mM, pH 7.4), and 10 μL of the diluted solution was added to 90 μL of human whole blood sample in a 48-wells flat-bottom transparent plate (Greiner Bio-One, The Netherlands). After a 30 min incubation at room temperature, the blood samples were then diluted 20 times with ultrapure water containing 0.03% Triton-X 100 (v/v), and 20 μL of the Triton-diluted blood was incubated for 20 min following the addition of 460 μL of DTNB and 20 μL of ethopropazine (an inhibitor to plasma butyrylcholinesterase (BuChE)). After that, 100 μL of ATC was added (final concentrations of ethopropazine, DTNB, and ATC were 20 μM, 1 mM, and 1 mM, respectively), and the absorbance at 436 nm was measured continuously to detect the remaining AChE activity. Controls were carried out by replacing the test compound with sodium phosphate buffer to correct for any background absorbance.
The benchmark response (BMR) of 5% for erythrocyte AChE inhibition is a conservative end point for deriving an effect level, since regulatory bodies usually use a higher BMR (i.e., 10% or 20%) for risk assessment of acute OP pesticide exposure.[24],[25] The European Food Safety Authority (EFSA) Web tool (https://efsa.openanalytics.eu/) integrated with the R package PROAST (version 70.0) was employed for the BMC analysis (see Supporting Information).

The target in series [5] is T1, erythrocyte AChE. As to the kind of experiment: Exposure Activity Ratio (EAR) and Dietary Comparator Ratio (DCR) calculation. The conditions noted are these: human, single oral 1600 mg/kg BW. The arrangement: from tissue; host or cells: human whole peripheral blood (erythrocytes), K2EDTA anticoagulant. How it is done:
The DCR value for an exposure scenario was calculated as the ratio of EARtest and EARcomparator (eq 1). The EARtest is scenario-specific and was defined with the IC50 of the tested organophosphate oxon for in vitro erythrocyte AChE inhibition and the PBK model-simulated CBmaxoxon at the defined exposure level (eq 2).
The DCR-based predictions were evaluated by comparing the obtained DCR results with actual knowledge of the adverse health effects reported for the respective exposure scenarios. Adverse effects cannot be ruled out for human exposure scenarios with a DCR result greater than 1, while exposure scenarios with a DCR result less than or equal to 1 are considered to raise no safety concern.[18]−[20] Once validated as an adequate predicting tool, the DCR approach was applied for evaluating the safety of exposure scenarios, for which no information on the resulting toxic outcomes was reported at the defined dose levels for humans.

The structures appear in SMILES notation. Where two headings read alike, the source gives them in different places.

T1 sequence (P22303 32-617 isoform P22303-2 limits assumed): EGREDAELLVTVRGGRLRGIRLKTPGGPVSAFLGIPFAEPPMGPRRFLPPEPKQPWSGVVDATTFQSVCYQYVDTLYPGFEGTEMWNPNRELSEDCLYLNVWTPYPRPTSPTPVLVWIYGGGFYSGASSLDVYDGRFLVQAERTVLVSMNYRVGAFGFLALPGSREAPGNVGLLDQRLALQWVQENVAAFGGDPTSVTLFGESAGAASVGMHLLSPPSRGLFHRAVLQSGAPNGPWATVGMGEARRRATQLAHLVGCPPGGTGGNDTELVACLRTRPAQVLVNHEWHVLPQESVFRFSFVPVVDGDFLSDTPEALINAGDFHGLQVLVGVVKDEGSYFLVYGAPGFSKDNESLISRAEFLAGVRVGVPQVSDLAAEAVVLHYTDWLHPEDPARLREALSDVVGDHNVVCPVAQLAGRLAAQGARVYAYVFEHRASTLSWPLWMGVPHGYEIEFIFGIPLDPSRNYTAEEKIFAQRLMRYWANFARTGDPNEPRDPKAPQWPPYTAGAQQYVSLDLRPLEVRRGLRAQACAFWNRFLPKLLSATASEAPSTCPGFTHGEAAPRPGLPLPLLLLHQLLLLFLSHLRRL

As to `COP(=O)(OC)Oc1ccc([N+](=O)[O-])c(C)c1` [fenitrooxon], the half-maximal inhibitory concentration (IC50) at erythrocyte AChE [1] was 0.84 µM.

On to `CCCSP(=O)(OCC)Oc1ccc(Br)cc1Cl` (centres unmarked) [profenofos], for which the “Reported concomitant effects (signs and symptoms)” value on erythrocyte AChE [2] (1600 mg/kg BW (112 g) acute oral, person, ref Seno et al. 1998) is “Died”. Also, the “reported or expected adverse health outcome” value at erythrocyte AChE [2] is listed as “positive”. In addition, the “reported or expected adverse health outcome” value on erythrocyte AChE [2] (listed as Profenofos) is listed as “Yes”. For the same compound, the “Oral absorption rate constant” value in series [3] was 0.90 h⁻¹. On erythrocyte AChE [4], this compound returned an IC50 of 94.5 µM. Further, at erythrocyte AChE [5], the “calculated DCR value” is recorded as 272 and the “calculated EARtest value” was 10.75.

Usually IC50 stands for the midpoint of a concentration-inhibition curve.

The values above are taken from publication PMC11966747, “Next Generation Risk Assessment of Acute Neurotoxicity from Organophosphate Exposures Using the In Vitro–In Silico Derived Dietary Comparator Ratio” (Environmental Science & Technology, 2025).
